Assay results as given in ChEMBL document CHEMBL5729517, “BTK inhibitor compounds” (2023).

Assays:
[1] = biological target: Tyrosine-protein kinase BTK (Homo sapiens, UniProt Q06187); experiment: BTK and EGFR in Vitro Assay: The BTK and EGFR biochemical assays utilize LANTHASCREEN® Eu Kinase Binding Assays from Thermo Fisher Scientific, measuring the binding of the kinase with a […] tracer. The assay buffer consists of 50 mM HEPES pH 7.5, 0.01% BRU™-35, 10 mM MgCl2, 1 mM EGTA, and 1 mM DTT. The test compounds are diluted and added to the assay plate with a Labcyte ECHO® 555 liquid handler. The compounds are tested in 10 point dose response curves (100 μM-0.005 μM) with a maximum DMSO concentration of 1%. The assays are performed in 20 μL in low-volume 384-well white proxiplates. For the BTK assay, the concentration of full-length His-labeled BTK in the assay is 5 nM, the Eu-anti-His antibody is 2 nM, and the kinase tracer 236 is 60 nM. For the EGFR assay, the concentration of truncated (amino acids 668-1210) GST-labeled EGFR is 5 nM, the Eu-anti-GST antibody is 2 nM, and the kinase tracer 199 is 10 nM. The components of the assay (compound, enzyme/antibody, tracer) are assembled and incubated for 30 min prior to being read on a Perkin-Elmer EnVision with excitation at 340 nm, tracer emission at 665 nm, and antibody emission at 615 nm. The signal ratio is converted to percent inhibition using the following equation: % Inhibition=100−[(Test Compound−Median Minimum)/(Median Maximum−Median Minimum)×100].
Sequence of Tyrosine-protein kinase BTK (Q06187 whole entry, the tested form may be a part): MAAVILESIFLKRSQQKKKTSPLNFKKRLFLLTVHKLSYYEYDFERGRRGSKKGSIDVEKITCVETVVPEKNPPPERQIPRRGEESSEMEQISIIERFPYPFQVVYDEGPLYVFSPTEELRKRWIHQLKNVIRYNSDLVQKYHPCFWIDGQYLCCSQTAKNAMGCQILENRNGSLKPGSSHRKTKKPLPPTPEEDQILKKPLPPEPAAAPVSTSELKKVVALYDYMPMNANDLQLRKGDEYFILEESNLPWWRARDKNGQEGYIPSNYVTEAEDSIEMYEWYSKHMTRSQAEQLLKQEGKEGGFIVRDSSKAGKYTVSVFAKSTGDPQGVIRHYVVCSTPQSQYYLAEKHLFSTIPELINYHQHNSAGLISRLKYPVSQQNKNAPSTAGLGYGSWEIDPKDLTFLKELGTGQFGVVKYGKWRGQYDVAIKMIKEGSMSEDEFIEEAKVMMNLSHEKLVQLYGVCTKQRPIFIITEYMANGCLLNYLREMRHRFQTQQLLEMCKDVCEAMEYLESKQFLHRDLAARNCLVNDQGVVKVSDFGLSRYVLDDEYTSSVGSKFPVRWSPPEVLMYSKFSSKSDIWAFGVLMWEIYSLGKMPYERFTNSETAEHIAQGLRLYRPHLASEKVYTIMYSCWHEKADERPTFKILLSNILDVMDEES

[2] = biological target: Epidermal growth factor receptor (Homo sapiens, UniProt P00533); experiment: BTK and EGFR in Vitro Assay: The BTK and EGFR biochemical assays utilize LANTHASCREEN® Eu Kinase Binding Assays from Thermo Fisher Scientific, measuring the binding of the kinase with a fluorinated tracer. The assay buffer consists of 50 mM HEPES pH 7.5, 0.01% BRU™-35, 10 mM MgCl2, 1 mM EGTA, and 1 mM DTT. […] The compounds are tested in 10 point dose response curves (100 μM-0.005 μM) with a maximum DMSO concentration of 1%. The assays are performed in 20 μL in low-volume 384-well white proxiplates. […] The signal ratio is converted to percent inhibition using the following equation: % Inhibition=100−[(Test Compound−Median Minimum)/(Median Maximum−Median Minimum)×100].
Sequence of Epidermal growth factor receptor (P00533 whole entry): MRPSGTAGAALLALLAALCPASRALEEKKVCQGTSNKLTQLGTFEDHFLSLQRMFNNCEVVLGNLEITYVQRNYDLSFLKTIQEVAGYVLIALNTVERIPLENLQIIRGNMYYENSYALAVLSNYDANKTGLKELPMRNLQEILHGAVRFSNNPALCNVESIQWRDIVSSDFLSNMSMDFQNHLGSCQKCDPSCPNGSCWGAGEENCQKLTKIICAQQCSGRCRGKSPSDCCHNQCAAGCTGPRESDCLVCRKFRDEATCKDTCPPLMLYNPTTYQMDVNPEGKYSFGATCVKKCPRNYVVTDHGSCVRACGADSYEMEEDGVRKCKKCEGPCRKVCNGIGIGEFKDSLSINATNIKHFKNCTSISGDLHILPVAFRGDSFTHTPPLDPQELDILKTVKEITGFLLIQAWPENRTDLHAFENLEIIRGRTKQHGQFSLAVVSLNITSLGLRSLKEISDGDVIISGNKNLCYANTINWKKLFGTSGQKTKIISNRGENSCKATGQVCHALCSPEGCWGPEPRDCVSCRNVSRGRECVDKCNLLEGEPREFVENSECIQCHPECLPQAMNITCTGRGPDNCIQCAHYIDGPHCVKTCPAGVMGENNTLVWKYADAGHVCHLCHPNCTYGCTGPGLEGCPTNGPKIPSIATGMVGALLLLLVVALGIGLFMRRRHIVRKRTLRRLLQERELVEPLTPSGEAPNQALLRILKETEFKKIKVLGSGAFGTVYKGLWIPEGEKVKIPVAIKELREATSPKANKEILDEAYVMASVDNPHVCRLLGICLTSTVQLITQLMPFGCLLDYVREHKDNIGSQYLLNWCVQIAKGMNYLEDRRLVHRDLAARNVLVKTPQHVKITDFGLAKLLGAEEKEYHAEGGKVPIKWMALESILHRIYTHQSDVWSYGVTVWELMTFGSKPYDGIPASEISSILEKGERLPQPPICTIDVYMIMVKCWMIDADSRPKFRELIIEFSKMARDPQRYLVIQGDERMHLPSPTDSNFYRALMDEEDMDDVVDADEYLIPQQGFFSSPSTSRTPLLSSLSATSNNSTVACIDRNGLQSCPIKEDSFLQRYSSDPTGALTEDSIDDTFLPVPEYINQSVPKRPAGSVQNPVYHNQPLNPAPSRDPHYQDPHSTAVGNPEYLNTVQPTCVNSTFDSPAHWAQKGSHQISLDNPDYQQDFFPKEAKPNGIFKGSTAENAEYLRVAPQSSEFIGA

Row | IC50 [1] | IC50 [2] | SMILES
1 | 0.0758 µM | 6.52 µM | C=CC(=O)N1CC(Nc2cncc(-c3cnc(Oc4cccc(C#N)c4)nc3)c2)C1
2 | 0.0555 µM | 28.5 µM | C=CC(=O)N1CC[C@H](Nc2cncc(-c3cnc(Oc4cccc(OC(F)F)c4)nc3)c2)C1
3 | 0.0329 µM | 16.1 µM | C=CC(=O)N1CC[C@H](Nc2cncc(-c3cnc(Nc4cccc(C)n4)nc3)c2)C1
4 | 0.00608 µM | 8.65 µM | C=CC(=O)N1CC[C@H](Nc2cncc(-c3cnc(Nc4cccc(OC(F)F)c4)nc3)c2)C1
